Assay results reported in article PMC10252614 (International Journal of Molecular Sciences, 2023).

Experiments:
human BChE (hBChE) = molecular target: T1, human BChE (hBChE) (Homo sapiens, UniProt P06276); assay: hBChE inhibition, modified Ellman's method; assay type: biochemical; conditions: 10^-6 M
T1 construct: made in house
Description: N-Methylpropargylamine-quinazolines were tested for their inhibitory potency against human AChE (hAChE) and human BChE (hBChE) enzymes using the modified spectrophotometric method of Ellman et al..
The human recombinant BChE and AChE were prepared at the Department of Toxicology and Military Pharmacy (Faculty of Military Health Sciences, Hradec Kralove, Czech Republic). 5,5′-dithiobis(2-nitrobenzoic acid) (Ellman’s reagent, DTNB), phosphate buffer (PB, pH 7.4), acetylthiocholine (ATC) and butyrylthiocholine (BTC), were purchased from Sigma-Aldrich, Prague, Czech Republic. For measuring purposes, polystyrene Nunc 96-well microplates with a flat-bottom shape (ThermoFisher Scientific, Waltham, MA, USA) were utilized. All the assays were carried out in 0.1 M KH2PO4/K2HPO4 buffer, pH 7.4. Enzyme solutions were prepared at 2.0 units/mL in 2 mL aliquots. The assay medium consisted of a 0.1 M phosphate buffer (pH 7.4), 0.01 M DTNB, the enzyme, and 0.01 M substrate (ATC/BTC iodide solution). Concentration 1 µM was tested and the % of inhibition was calculated. Tested compounds were pre-incubated for 5 min. The reaction was started by immediate addition of 20 μL of the substrate. […] Each concentration was assayed in triplicate. Software GraphPad Prism 5 (San Diego, CA, USA) was used for the statistical data evaluation.

hMAO-B = molecular target: T2, hMAO-B (Homo sapiens, UniProt P27338); assay: in vitro inhibition of hMAO-B, kynuramine fluorescence assay; assay type: biochemical
T2 construct: purchased Merck (Prague, Czech Republic)
T2 sequence (P27338 1-520): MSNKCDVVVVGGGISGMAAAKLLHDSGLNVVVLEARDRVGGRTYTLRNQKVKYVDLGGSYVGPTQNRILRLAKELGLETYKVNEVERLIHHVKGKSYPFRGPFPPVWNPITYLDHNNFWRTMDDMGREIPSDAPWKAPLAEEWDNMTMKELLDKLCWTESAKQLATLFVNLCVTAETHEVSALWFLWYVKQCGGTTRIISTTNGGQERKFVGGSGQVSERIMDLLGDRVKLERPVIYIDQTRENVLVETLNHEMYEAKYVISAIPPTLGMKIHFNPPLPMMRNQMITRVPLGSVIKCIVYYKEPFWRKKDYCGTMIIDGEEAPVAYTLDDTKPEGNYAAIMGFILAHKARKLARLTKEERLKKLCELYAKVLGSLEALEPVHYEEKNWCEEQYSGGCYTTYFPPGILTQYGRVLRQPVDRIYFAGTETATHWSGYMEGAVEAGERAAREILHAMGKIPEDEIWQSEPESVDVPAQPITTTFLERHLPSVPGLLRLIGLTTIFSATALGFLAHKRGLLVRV
Description: The hMAO-A and hMAO-B enzymes were purchased from Merck (Prague, Czech Republic). […] The mixture was pre-incubated at 37 °C for 15 min and subsequently substrate kynuramine was added to the final concentration of 100 µM. The final volume of reaction mixture was 0.1 mL. The whole reaction mixture was incubated at 37 °C for 30 min. The reaction was stopped by the addition of 20 µL 4M NaOH.

[1] = PAMPA prediction of BBB permeability; assay type: in vitro ADME; conditions: for CNS (+/−): PAMPA class; for Papp: read-out: Pe ± SEM
Description: The assay validation was performed using standard compounds whose CNS status is experimentally known from in vivo conditions.
PAMPA (the parallel artificial membrane-permeability assay) is a high-throughput screening tool applicable for prediction of the passive transport of potential drugs across the blood–brain barrier (BBB). In this study, it was used as a non-cell-based in vitro assay carried out in a coated 96-well membrane filter. The filter membrane of the donor plate was coated with PBL (Polar Brain Lipid, Avanti, USA) in dodecane (4 µL of 20 mg/mL PBL in dodecane) and the acceptor well was filled with 300 µL of PBS (pH 7.4; VA). The tested compounds were dissolved first in DMSO and subsequently diluted with PBS (pH 7.4) to final concentrations of 50–100 μM in the donor wells. […] About 300 µL of the donor solution was added to the donor wells (VD) and the donor filter plate was carefully put on the acceptor plate so that the coated membrane was “in touch” with both the donor solution and acceptor buffer. In principle, the test compound diffused from the donor well through the lipid membrane (Area = 0.28 cm^2) to the acceptor well. The concentration of the drug in both the donor and acceptor wells were assessed after 3, 4, 5, and 6 h of incubation in quadruplicate using the UV plate reader Spark (Tecan Group Ltd., Männedorf, Switzerland) at the maximum absorption wavelength of each compound. In addition, the solution of the theoretical compound concentration, simulating the equilibrium state established if the membrane were ideally permeable, was prepared and assessed as well.

SH-SY5Y cells = assay: dehydrogenase activity, WST-1 test; assay type: cell-based, human; conditions: for Dehydrogenase Activity (% of Control): 100 µM, mean ± SD; for change in dehydrogenase activity (in words): 10 µM
Description: Next, we tested the effects of the compounds on intracellular dehydrogenase activity and glutathione levels. […] To evaluate the effects of the compounds on cells, we measured total intracellular dehydrogenase activity as a marker of cellular viability and glutathione levels for evaluation of oxidative stress (Table 6).
Dehydrogenase activity was evaluated by WST-1 test (Roche, Munich, Germany). The WST-1 test measures the activity of intra- and extra-mitochondrial dehydrogenases. […] The change of absorbance was measured by spectrophotometer at the wavelength of 440 nm using SPARK microplate reader (Tecan, Austria) while incubated at 37 °C. The dehydrogenase activity was expressed as the percentage of total cellular dehydrogenase activity relative to that in the control cells (control = 100%).

T1 sequence (P06276 29-602): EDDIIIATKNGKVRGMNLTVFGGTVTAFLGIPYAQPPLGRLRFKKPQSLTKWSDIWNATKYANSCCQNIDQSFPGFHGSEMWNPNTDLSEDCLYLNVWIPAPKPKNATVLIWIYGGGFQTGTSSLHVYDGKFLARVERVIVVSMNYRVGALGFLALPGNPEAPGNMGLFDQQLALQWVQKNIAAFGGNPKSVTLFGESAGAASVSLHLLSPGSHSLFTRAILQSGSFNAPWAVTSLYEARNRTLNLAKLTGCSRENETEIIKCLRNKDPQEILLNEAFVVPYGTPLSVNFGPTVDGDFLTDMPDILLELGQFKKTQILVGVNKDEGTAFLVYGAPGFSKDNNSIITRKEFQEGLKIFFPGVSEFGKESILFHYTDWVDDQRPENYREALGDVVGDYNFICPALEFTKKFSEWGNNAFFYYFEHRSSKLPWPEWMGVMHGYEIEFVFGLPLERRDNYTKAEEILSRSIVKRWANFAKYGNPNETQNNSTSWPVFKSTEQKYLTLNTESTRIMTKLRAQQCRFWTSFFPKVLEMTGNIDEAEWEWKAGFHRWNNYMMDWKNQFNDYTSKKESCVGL

In the case of `C#CCN(C)c1nc(NCCCC)c2ccccc2n1` [I-6e, N4-butyl-N2-methyl-N2-(prop-2-yn-1-yl)quinazoline-2,4-diamine], the inhibition at 1 µM (human BChE (hBChE)) is reported as 4%, the “selectivity profile hMAO-A vs hMAO-B (in words)” value (hMAO-B) is reported as “hMAO-A selective inhibitors” and the “BBB penetration by PAMPA (in words)” value [1] is reported as “high probability of crossing BBB via passive diffusion”. For the same compound, the “CNS (+/−)” value [1] was “CNS (+) (CNS (+) (high BBB permeation predicted): Pe (×10^−6 cm s^−1) > 4.0)”, the Papp ([1]; PAMPA, PBS pH 7.4) was 7.37 ± 1.22 ×10⁻⁶ cm/s and the “Dehydrogenase Activity (% of Control)” value (SH-SY5Y cells; 6 h) was 44 ± 13 % of Control. The “Dehydrogenase Activity (% of Control)” value (SH-SY5Y cells; 24 h) was 49 ± 4 % of Control.
For `C#CCN(C)c1nc(NC2CCCCC2)c2ccccc2n1` [I-6h, N4-cyclohexyl-N2-methyl-N2-(prop-2-yn-1-yl)quinazoline-2,4-diamine], the inhibition at 1 µM (human BChE (hBChE)) was 0%, the IC50 (hMAO-B) was 8.69 ± 0.12 µM and the “selectivity profile hMAO-A vs hMAO-B (in words)” value (hMAO-B) was “inhibitor of both hMAO isoforms, with a preference for hMAO-B inhibition”. The “SI for MAO-B” value (hMAO-B; IC50(MAO-A)/IC50(MAO-B)) was 0.10, the “BBB penetration by PAMPA (in words)” value [1] was “high probability of crossing BBB via passive diffusion” and the “CNS (+/−)” value [1] was “CNS (+) (CNS (+) (high BBB permeation predicted): Pe (×10^−6 cm s^−1) > 4.0)”. For the same compound, the Papp ([1]; PAMPA, PBS pH 7.4) was 5.61 ± 1.01 ×10⁻⁶ cm/s, the “Dehydrogenase Activity (% of Control)” value (SH-SY5Y cells; 6 h) was 62 ± 10 % of Control and the “Dehydrogenase Activity (% of Control)” value (SH-SY5Y cells; 24 h) was 49 ± 2 % of Control.
With `C#CCN(C)c1nc(NC2CCCCC2)c2ccc(Cl)cc2n1` [II-6h, 7-chloro-N4-cyclohexyl-N2-methyl-N2-(prop-2-yn-1-yl)quinazoline-2,4-diamine] the inhibition at 1 µM (human BChE (hBChE)) was 3%, the IC50 (hMAO-B) was 0.33 ± 0.02 µM and the “selectivity profile hMAO-A vs hMAO-B (in words)” value (hMAO-B) was “hMAO-B selective inhibitors”. For the same compound, the “BBB penetration by PAMPA (in words)” value [1] was “high probability of crossing BBB via passive diffusion”, the “CNS (+/−)” value [1] was “CNS (+) (CNS (+) (high BBB permeation predicted): Pe (×10^−6 cm s^−1) > 4.0)” and the Papp ([1]; PAMPA, PBS pH 7.4) was 9.39 ± 1.17 ×10⁻⁶ cm/s. For the same compound, the “change in dehydrogenase activity (in words)” value (SH-SY5Y cells; 24 h) was “no significant changes”, the “Dehydrogenase Activity (% of Control)” value (SH-SY5Y cells; 6 h) was 40 ± 3 % of Control and the “Dehydrogenase Activity (% of Control)” value (SH-SY5Y cells; 24 h) was 22 ± 7 % of Control.
In the case of `C#CCN(C)c1nc(N)c2cc(OC)ccc2n1` [III-6a, 6-methoxy-N2-methyl-N2-(prop-2-yn-1-yl)quinazoline-2,4-diamine], the inhibition at 1 µM (human BChE (hBChE)) is reported as 1%, the “selectivity profile hMAO-A vs hMAO-B (in words)” value (hMAO-B) is reported as “hMAO-A selective inhibitors” and the “BBB penetration by PAMPA (in words)” value [1] is reported as “did not penetrate the artificial barrier”. The “CNS (+/−)” value [1] was “CNS (−) (CNS (−) (low BBB permeation predicted): Pe (×10^−6 cm s^−1) < 2.0)”, the “Pe ± SEM” value ([1]; PAMPA, PBS pH 7.4) was 0 ×10⁻⁶ cm/s and the “change in dehydrogenase activity (in words)” value (SH-SY5Y cells; 24 h) was “no significant changes”. The “Dehydrogenase Activity (% of Control)” value (SH-SY5Y cells; 6 h) was 107 ± 8 % of Control and the “Dehydrogenase Activity (% of Control)” value (SH-SY5Y cells; 24 h) was 128 ± 4 % of Control.
